One block for each compound: values may come before it.
Legend:
ESBL+ E. coli strain = assay: ESBL+ E. coli cultured with cefotaxime with or without clavulanate potassium; type: cell-based
Protocol: FIG. 4: Cyclic voltammograms (v=50 mV·s^−1) recorded with a screen-printed sensor for the E. coli strain ESBL^+ cultured in a culture medium containing only 4 μg·mL^−1 of cefotaxime (A) or supplemented with 10 μg·mL^−1 of clavulanate potassium, then centrifuged (1 mL; 7000 g; 10 min) before a step of incubation of the pellet with 50 μL in a 500-μM solution of nitrocefin in PBS for 10 min.
Since the hyperproduced cephalosporinases and the carbapenemases can also hydrolyse cefotaxime, the bacteria producing these enzymes can also give a positive response in the presence of cefotaxime. In order to distinguish the bacteria producing extended-spectrum beta-lactamases and the bacteria producing hyperproduced cephalosporinases and carbapenemases, the bacteria were cultured simultaneously in two culture media, one containing cefotaxime as antibiotic, the other additionally containing clavulanate potassium as inhibitor of ESBLs. After recovering the bacteria, the bacterial pellets were incubated with nitrocefin as substrate.

[1] = system: E. coli strains ESBL+ (MIAE6690) and ESBL− (K12); assay: Optical density of E. coli strains cultured with cefotaxime; type: cell-based
[2] = Cyclic voltammetry of nitrocefin and its form hydrolyzed by ESBL; type: physicochemical; settings: screen-printed carbon electrodes; for peak of irreversible anodic oxidation (a1): PBS pH 7.0
Source text: Each sensor consists of the working electrode and a counter-electrode. The working area of the sensor (7.07 mm^2) is delimited with an adhesive ring, which also allows the electrochemical cell to be defined. For carrying out amperometric measurement, the sensor is inserted in a connector (Dropsens) connected to the potentiostat, and then a 20-μL drop of the solution to be analyzed is deposited on the surface of the sensor. After immersing a silver wire coated with a silver chloride precipitate (Ag/AgCl), which constitutes the reference electrode, the measurements are carried out by cyclic voltammetry (v=50 mV·s^−1) at ambient temperature.
5 μL of ESBL solution is put in a polypropylene tube containing 45 μL of 0.5 mM nitrocefin solution in phosphate buffer (PBS; 100 mM; pH=7.0). After a step of incubation for 10 minutes at ambient temperature in the dark, 20 μL of the mixture is taken and transferred onto the surface of the screen-printed carbon sensor. A reference electrode (Ag/AgCl) is then immersed in the 20 μL of solution previously deposited, and the cyclic voltammetry measurements are carried out by proceeding as follows: potential scanning between −0.4 V and 1.2 V at a rate of 50 mV·s^−1.
The oxidation peak appearing at about +0.3 V results from hydrolysis of the beta-lactam ring of nitrocefin and may be selected as the analytical response for identifying beta-lactamases in a sample.
Nitrocefin was hydrolyzed by an extended-spectrum beta-lactamase in an abundant quantity. The voltammetric behaviour of nitrocefin (S) and of its hydrolyzed form (P) was investigated by cyclic voltammetry using screen-printed electrodes based on carbon. Nitrocefin and hydrolyzed nitrocefin both have a peak of irreversible anodic oxidation (a1) at about +1.0 V vs. Ag/AgCl. This peak may be attributed to oxidation of the thiol group in the dihydrothiazine group or to other functions specific to the cephalosporin derivatives. […]

[3] = system: E. coli strains ESBL+ (MIAE6690) and ESBL− (K12); assay: Voltammetric detection of ESBL-producing E. coli with nitrocefin; type: cell-based; settings: pellet incubated 10 min with 500 μM nitrocefin
Protocol: Then 1 mL of each bacterial suspension is transferred to a polypropylene tube and centrifuged at 7000 g for 10 min. After removing the supernatant, a volume of 50 μL of nitrocefin solution (0.5 mM in PBS) is put in the tube and incubated with the bacterial pellet for 10 min at ambient temperature in the dark. The liquid is then aspirated and transferred onto the screen-printed sensor to carry out the voltammetric measurement as stated in section 1.3.
To evaluate the capacity of the voltammetric method for detecting the ESBL-producing bacteria, two strains of E. coli with a well-characterized genotype were selected, one being a producer of an ESBL (ESBL^+) and the other not producing ESBL (ESBL^−). First the two strains are cultured in LB medium containing 4 μg·mL^−1 of cefotaxime. After the centrifugation step, the respective bacterial pellets of these two strains are incubated with nitrocefin as substrate. […] The culture medium supplemented with cefotaxime and the medium without antibiotic were also subjected to voltammetric measurement. No specific signal is observed in the potential range [0.1-0.6 V vs. Ag/AgCl] for these two media, which confirms that neither the LB culture medium, nor cefotaxime interferes with voltammetric detection.

SMILES: CO/N=C(\C(=O)N[C@@H]1C(=O)N2C(C(=O)O)=C(COC(C)=O)CS[C@H]12)c1csc(N)n1 [cefotaxime]
E. coli count on selective medium (ESBL+ E. coli strain; culture with cefotaxime without inhibitor): 1.8×10^8 CFU·mL^−1
optical density ([1]; ESBL+ E. coli strain cultured in LB with 4 μg·mL^−1 cefotaxime): 0.934
optical density ([1]; ESBL− E. coli strain cultured in LB with 4 μg·mL^−1 cefotaxime): 0.002

SMILES: O=C(O)[C@H]1/C(=C/CO)O[C@@H]2CC(=O)N21 [clavulanate potassium]
anodic peak resulting from hydrolysis of nitrocefin (ESBL+ E. coli strain; ESBL+ strain cultured with 4 μg·mL^−1 cefotaxime and 10 μg·mL^−1 clavulanate potassium): no signal was recorded
E. coli count on selective medium (ESBL+ E. coli strain; culture with cefotaxime supplemented with an inhibitor (clavulanate potassium)): 80 CFU·mL^−1

peak of irreversible anodic oxidation (a1) [2]: about +1.0 V vs. Ag/AgCl
peak of irreversible anodic oxidation (a2) ([2]; PBS pH 7.0, nitrocefin hydrolyzed by ESBL): about +0.3 V
SMILES: O=C(Cc1cccs1)NC(C(=O)O)C1NC(C(=O)O)=C(C=Cc2ccc([N+](=O)[O-])cc2[N+](=O)[O-])CS1 (stereo not shown) [hydrolyzed nitrocefin]

peak of irreversible anodic oxidation (a1) [2]: about +1.0 V vs. Ag/AgCl
SMILES: O=C(Cc1cccs1)N[C@@H]1C(=O)N2C(C(=O)O)=C(/C=C/c3ccc([N+](=O)[O-])cc3[N+](=O)[O-])CS[C@H]12 [nitrocefin]
anodic peak associated with hydrolysis of the β-lactam ring of nitrocefin ([3]; ESBL+ E. coli strain): about +0.4 V vs. Ag/AgCl
anodic peak associated with hydrolysis of the β-lactam ring of nitrocefin ([3]; ESBL− E. coli strain): no peak is recorded

Reference: patent US10718006B2, “Methods for detecting beta-lactamase-producing bacteria” (priority 2015, dated 2020)
